Assay: Related substances of active ingredient A, samples placed at 50° C. for 10 days
Assay type: physicochemical
Conditions: mixed powders
Description: The raw and auxiliary materials were weighed based on the formulation amount and mixed well. The mixed powder of each example was wrapped separately in a clean weighing paper, sealed in an aluminum foil bag, and placed at 50° C. for 10 days. Samples were then taken, determined for related substances and compared with the comparative example.

Related substances of active ingredient B after placed under the influencing factor: no increase in impurities
Structure (SMILES): CCOc1ccc(Cc2cc([C@@H]3O[C@H](CO)[C@@H](O)[C@H](O)[C@H]3O)ccc2Cl)cc1 [active ingredient B, Dapagliflozin]
